Data as given in patent US6703407B1, “Benzofuran compounds, compositions, and methods” (Eli Lilly and Company, priority 1994, dated 2004).

Experiments:
Type in all cases: in vivo, Sprague Dawley rats
ovariectomized rats [1] = test: Uterine weight in ovariectomized rat post-menopausal model (4-day dosing); conditions: for Uterine Weight (% increase vs. OVX): OVX rats, oral daily for 4 days
Protocol: (§1) In the examples illustrating the methods, a post-menopausal model was used in which effects of different treatments upon circulating lipids were determined.
(§2) Seventy-five day old female Sprague Dawley rats (weight range of 200 to 225 g) were obtained from Charles River Laboratories (Portage, Mich.). The animals were either bilaterally ovariectomized (OVX) or exposed to a Sham surgical procedure at Charles River Laboratories, and then shipped after one week. Upon arrival, they were housed in metal hanging cages in groups of 3 or 4 per cage and had ad libitum access to food (calcium content approximately 0.5%) and water for one week. Room temperature was maintained at 22.20±1.7° C. with a minimum relative humidity of 40%. The photoperiod in the room was 12 hours light and 12 hours dark.
(§3) Dosing Regimen Tissue Collection. After a one week acclimation period (therefore, two weeks post-OVX) daily dosing with test compound was initiated. 17α-ethynyl estradiol or the test compound were given orally, unless otherwise stated, as a suspension in 1% carboxymethylcellulose or dissolved in 20% cyclodextrin. Animals were dosed daily for 4 days. Following the dosing regimen, animals were weighed and anesthetized with a ketamine: Xylazine (2:1, V:V) mixture and a blood sample was collected by cardiac puncture. The animals were then sacrificed by asphyxiation with CO2, the uterus was removed through a midline incision, and a wet uterine weight was determined.

[2] = tested on: Uterine Eosinophil Peroxidase (EPO); test: Uterine Eosinophil Peroxidase (EPO) Assay; conditions: for Uterine EPO (V. max): OVX rats, oral daily for 4 days
From the text: as §2, §3
Uterine Eosinophil Peroxidase (EPO) Assay. Uteri were kept at 4° C. until time of enzymatic analysis. The uteri were then homogenized in 50 volumes of 50 mM Tris buffer (pH−8.0) containing 0.005% Triton X-100. Upon addition of 0.01% hydrogen peroxide and 10 mM o-phenylenediamine (final concentrations) in Tris buffer, increase in absorbance was monitored for one minute at 450 nm. The presence of eosonophils in the uterus is an indication of estrogenic activity of a compound. The maximal velocity of a 15 second interval was determined over the initial, linear portion of the reaction curve.

ovariectomized rats [3] = test: Serum cholesterol in ovariectomized rat post-menopausal model (4-day dosing); conditions: oral daily for 4 days
Protocol: as §1, §2, §3
Cholesterol Analysis. Blood samples were allowed to clot at room temperature for 2 hours, and serum was obtained following centrifugation for 10 minutes at 3000 rpm. Serum cholesterol was determined using a Boehringer Mannheim Diagnostics high performance cholesterol assay. Briefly the cholesterol was oxidized to cholest-4-en-3-one and hydrogen peroxide. The hydrogen peroxide was then reacted with phenol and 4-aminophenazone in the presence of peroxidase to produce a p-quinone imine dye, which was read spectrophotemetrically at 500 nm. Cholesterol concentration was then calculated against a standard curve. The entire assay was automated using a Biomek Automated Workstation.

C#C[C@]1(O)CC[C@H]2[C@@H]3CCc4cc(O)ccc4[C@H]3CC[C@@]21C [EE2, 17α-ethynyl estradiol, reference compound]
Uterine Weight (% increase vs. OVX) (ovariectomized rats [1]; dose 0.1 mg/kg): 172.8 % increase vs. OVX
uterine weight vs. ovariectomized test animals (in words) (ovariectomized rats [1]; orally administered at 0.1 mg/Kg/day): substantially greater than the uterine weight of ovariectomized test animals
Uterine EPO (V. max) ([2]; dose 0.1 mg/kg): 201.9 V. max
eosinophil infiltration into the uterus (number of eosinophils in the stromal layer, in words) ([2]; ovariectomized rats): substantial, expected increase in eosinophil infiltration
Serum Cholesterol (% decrease vs. OVX) (ovariectomized rats [3]; dose 0.1 mg/kg): 92.6 % decrease vs. OVX

Cl.Oc1ccc(-c2oc3cc(O)ccc3c2Cc2ccc(OCCN3CCCCC3)cc2)cc1 [Ex-3, [2-(4-Hydroxyphenyl)-6-hydroxybenzofuran-3-yl][4-[2-(1-piperidinyl)ethoxy]phenyl]methane Hydrochloride]
Uterine Weight (% increase vs. OVX) (ovariectomized rats [1]; dose 0.1 mg/kg): 8.6 % increase vs. OVX
Uterine Weight (% increase vs. OVX) (ovariectomized rats [1]; dose 1.0 mg/kg): 26.3 % increase vs. OVX
Uterine Weight (% increase vs. OVX) (ovariectomized rats [1]; dose 10.0 mg/kg): 30.1 % increase vs. OVX
Uterine EPO (V. max) ([2]; dose 0.1 mg/kg): 4.7 V. max
Uterine EPO (V. max) ([2]; dose 1.0 mg/kg): 5.8 V. max
Uterine EPO (V. max) ([2]; dose 10.0 mg/kg): 11.3 V. max
Serum Cholesterol (% decrease vs. OVX) (ovariectomized rats [3]; dose 0.1 mg/kg): 38.9 % decrease vs. OVX
Serum Cholesterol (% decrease vs. OVX) (ovariectomized rats [3]; dose 1.0 mg/kg): 53.0 % decrease vs. OVX
Serum Cholesterol (% decrease vs. OVX) (ovariectomized rats [3]; dose 10.0 mg/kg): 73.3 % decrease vs. OVX
